Results from publication PMC13544220, “Glycemic and bodyweight effects of GIPR coding variation reflect differences in surface expression and intrinsic functional impairment” (Science Advances, 2026).
Substitutions are numbered along the chain they refer to. Peptide text beside a SMILES is read from it. * marks the point of attachment. Cbz = O=C(OCc1ccccc1)*; OtBu = CC(C)(C)O*

What was measured:
[1] = system: membranes from untransfected HEK293 cells; assay: [125I]GIP(1-42)OH radioligand binding, untransfected control; design: species or system human; settings: either assay condition
Experimental: Radioligand binding to the GIPR variant receptors was performed using the assay procedure described in ([59]) with some slight modification in the buffer. […] A3782), and 25 mM Hepes (Gibco, catalog no. […] The assay was incubated overnight at 25°C and then centrifuged at 1000 rpm (Beckman Coulter, Avanti J-15R).

[2] = system: wild-type and variant SNAP-GIPR in INS-1 cells; assay: Bafilomycin A1 effect on surface SNAP-GIPR in INS-1 cells; type: cell-based, human; settings: inhibition of constitutive GIPR down-regulation; fig. S2A
Experimental: Twenty-four hours before the experiment, AD293 or INS-1 cells were reverse transfected with GIPR variant or wild-type plasmids using Lipofectamine 2000 in 96-well, clear-bottom, black microplates precoated with poly-D-lysine. All variants were tested in parallel on each occasion to control for transfection efficiency differences between experiments.

[3] = system: wild-type and variant SNAP-GIPR in INS-1 cells; assay: Proteasomal inhibition, total SNAP-GIPR in INS-1 cells; type: cell-based, human; settings: for total SNAP-GIPR level with PSI: 100 μM, 4 h, INS-1, scaled to experimental average without PSI; for total SNAP-GIPR level after proteasomal inhibition: INS-1, 100 μM, 4 hours
Experimental: INS-1 cells were reverse transfected with the GIPR variant or wild-type plasmids in 96-well, clear-bottom, black microplates precoated with poly-D-lysine. All variants were tested in parallel on each occasion to control for transfection efficiency differences between experiments. Twelve hours posttransfection, the cells were treated with either vehicle or Proteasome Inhibitor I (Merck) for 4 hours. Following this, the cells were labeled with the cell-permeable SNAP-tag probe BG-OG ([29]) for 10 min at 37°C to label total SNAP. Cells were then imaged as in the “Assessment of surface GIPR expression by SNAP-tag labeling in cell lines” section to establish total GIPR labeling (surface and intracellular). Images were analyzed as in the “Assessment of surface GIPR expression by SNAP-tag labeling in cell lines” section.

[4] = molecular target: T1, wild-type and variant SNAP-GIPR (Homo sapiens, UniProt P48546, E354Q); assay: cAMP concentration response (HTRF) in AD293 cells, SNAP-GIPR; type: cell-based; settings: AD293, SNAP-GIPR E354Q, 0.1% BSA
T1 construct: the endogenous GIPR signal peptide was removed and replaced with a SNAPf tag; host or cells: AD293 (adherent HEK293), transient transfection
T1 sequence (P48546 22-466 E354Q): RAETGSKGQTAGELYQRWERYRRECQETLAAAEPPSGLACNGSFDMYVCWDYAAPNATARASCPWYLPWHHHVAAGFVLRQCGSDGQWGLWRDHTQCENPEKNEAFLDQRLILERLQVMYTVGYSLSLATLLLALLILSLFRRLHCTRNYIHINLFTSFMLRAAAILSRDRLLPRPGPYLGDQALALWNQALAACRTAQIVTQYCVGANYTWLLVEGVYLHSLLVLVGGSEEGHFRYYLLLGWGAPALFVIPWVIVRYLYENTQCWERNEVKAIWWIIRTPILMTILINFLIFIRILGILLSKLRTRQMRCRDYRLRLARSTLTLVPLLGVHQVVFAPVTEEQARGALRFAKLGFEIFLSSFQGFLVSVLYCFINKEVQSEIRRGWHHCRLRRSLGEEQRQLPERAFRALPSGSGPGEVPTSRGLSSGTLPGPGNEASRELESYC
Experimental: (Imperial College London): 24 hours before the experiment, AD293 cells were reverse transfected with the GIPR variant or wild-type plasmids using Lipofectamine 2000 in 12-well plates. All variants were tested in parallel on each occasion to control for transfection efficiency differences between experiments. […] Data were fit using a three-parameter logistic model using GraphPad Prism 10.

hGIPR WT = molecular target: T2, hGIPR WT (Homo sapiens, UniProt P48546); assay: cAMP accumulation in HEK293 cells, untagged GIPR (Eli Lilly); type: cell-based; settings: HEK-293, untagged, 0.1% casein, (SEM, n), n=4
T2 construct: expressed in transfected cells; host or cells: HEK293, transient
T2 sequence (P48546 22-466): T1 sequence (P48546 22-466 E354Q) with Q333E

In the case of “[125I]GIP(1-42)OH: radioligand [125I]GIP(1-42)OH (Revvity)”, the “specific binding, untransfected HEK293 membranes” value [1] is reported as “no significant specific binding detected”.
With CO/C1=C\C(C)=C\[C@@H](C)[C@@H](O)[C@@H](C)C/C(C)=C/C=C/[C@H](OC)[C@@H]([C@@H](C)[C@@H](O)[C@H](C)[C@@]2(O)C[C@@H](O)[C@H](C)[C@@H](C(C)C)O2)OC1=O [bafilomycin A1] the “rescue of surface expression of GIPR variants” value [2] was “did not lead to disproportionate “rescue””.
CC[C@H](C)[C@H](NC(=O)OCc1ccccc1)C(=O)N[C@@H](CCC(=O)OC(C)(C)C)C(=O)N[C@@H](C)C(=O)N[C@H](C=O)CC(C)C [PSI] (Cbz-IE(OtBu)AL-aldehyde) was tested, and the “total SNAP-GIPR level with PSI” value ([3]; E288G, replicate 1) was 0.3892, the “total SNAP-GIPR level with PSI” value ([3]; E288G, replicate 2) was 3.417 and the “total SNAP-GIPR level with PSI” value ([3]; E288G, replicate 3) was 2.001. For the same molecule, the “total SNAP-GIPR level with PSI” value ([3]; E288G, replicate 4) was 0.9026, the “total SNAP-GIPR level with PSI” value ([3]; E288G, replicate 5) was 1.217 and the “total SNAP-GIPR level with PSI” value ([3]; E354Q, replicate 1) was 0.9055. For the same molecule, the “total SNAP-GIPR level with PSI” value ([3]; E354Q, replicate 2) was 0.737, the “total SNAP-GIPR level with PSI” value ([3]; E354Q, replicate 3) was 1.364 and the “total SNAP-GIPR level with PSI” value ([3]; E354Q, replicate 4) was 0.8268. The “total SNAP-GIPR level with PSI” value ([3]; E354Q, replicate 5) was 0.8316, the “total SNAP-GIPR level after proteasomal inhibition” value ([3]; E288G) was “significant increase in E288G levels” and the “total SNAP-GIPR level after proteasomal inhibition” value ([3]; R190Q and R101H) was “numerically similar trends”. The “total SNAP-GIPR level after proteasomal inhibition” value ([3]; wild-type and E354Q) was “unaffected by proteasomal inhibition”, the “total SNAP-GIPR level with PSI” value ([3]; R101H, replicate 1) was 0.131 and the “total SNAP-GIPR level with PSI” value ([3]; R101H, replicate 2) was 0.3704. The “total SNAP-GIPR level with PSI” value ([3]; R101H, replicate 3) was 0.7801, the “total SNAP-GIPR level with PSI” value ([3]; R101H, replicate 4) was 0.651 and the “total SNAP-GIPR level with PSI” value ([3]; R101H, replicate 5) was 0.8591. The “total SNAP-GIPR level with PSI” value ([3]; R190Q, replicate 1) was 0.3291, the “total SNAP-GIPR level with PSI” value ([3]; R190Q, replicate 2) was 0.5524 and the “total SNAP-GIPR level with PSI” value ([3]; R190Q, replicate 3) was 1.18. The “total SNAP-GIPR level with PSI” value ([3]; R190Q, replicate 4) was 0.5932, the “total SNAP-GIPR level with PSI” value ([3]; R190Q, replicate 5) was 0.77 and the “total SNAP-GIPR level with PSI” value ([3]; WT, replicate 1) was 4.2848. The “total SNAP-GIPR level with PSI” value ([3]; WT, replicate 2) was 3.795, the “total SNAP-GIPR level with PSI” value ([3]; WT, replicate 3) was 3.454 and the “total SNAP-GIPR level with PSI” value ([3]; WT, replicate 4) was 1.746. For the same molecule, the “total SNAP-GIPR level with PSI” value ([3]; WT, replicate 5) was 2.287.
For CC[C@H](C)[C@H](NC(=O)[C@H](CC(C)C)NC(=O)[C@H](Cc1c[nH]c2ccccc12)NC(=O)[C@H](CCC(N)=O)NC(=O)[C@@H](NC(=O)[C@H](Cc1ccccc1)NC(=O)[C@H](C)NC(=O)[C@H](CCCCNC(=O)COCCOCCNC(=O)COCCOCCNC(=O)CC[C@H](NC(=O)CCCCCCCCCCCCCCCCCCC(=O)O)C(=O)O)NC(=O)[C@H](CCC(N)=O)NC(=O)[C@H](C)NC(=O)[C@@H](NC(=O)[C@H](CCCCN)NC(=O)[C@H](CC(=O)O)NC(=O)[C@H](CC(C)C)NC(=O)C(C)(C)NC(=O)[C@@H](NC(=O)[C@H](CO)NC(=O)[C@H](Cc1ccc(O)cc1)NC(=O)[C@H](CC(=O)O)NC(=O)[C@H](CO)NC(=O)[C@@H](NC(=O)[C@H](Cc1ccccc1)NC(=O)[C@@H](NC(=O)CNC(=O)[C@H](CCC(=O)O)NC(=O)C(C)(C)NC(=O)[C@@H](N)Cc1ccc(O)cc1)[C@@H](C)O)[C@@H](C)O)[C@@H](C)CC)[C@@H](C)CC)C(C)C)C(=O)N[C@@H](C)C(=O)NCC(=O)NCC(=O)N1CCC[C@H]1C(=O)N[C@@H](CO)C(=O)N[C@@H](CO)C(=O)NCC(=O)N[C@@H](C)C(=O)N1CCC[C@H]1C(=O)N1CCC[C@H]1C(=O)N1CCC[C@H]1C(=O)N[C@@H](CO)C(N)=O [tirzepatide], the “cAMP signaling (∆LogEmax/EC50)” value [4] was “increased cAMP signaling” and the Emax (hGIPR WT) was 90.6%.
